Test results as given in patent publication US20260226047A1, “BENZIMIDAZOLE AND AZA-BENZIMIDAZOLE BASED IL-17A MODULATORS AND USES THEREOF” (DICE ALPHA, INC., priority 2023, published 2026).

Biological target: T1, IL-17A/A (Homo sapiens, UniProt Q16552)
T1 construct: purchased Genscript Z03228
T1 sequence (Q16552 24-155): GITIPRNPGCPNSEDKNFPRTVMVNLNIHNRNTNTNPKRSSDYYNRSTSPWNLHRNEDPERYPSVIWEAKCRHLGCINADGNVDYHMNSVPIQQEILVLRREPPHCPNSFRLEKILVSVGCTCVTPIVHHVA
Experiment: IL-17A/A HEK-Blue Cell Assay
Format: cell-based
Conditions: IL-17A/A inhibition, HEK-Blue IL-17A reporter cell line, SEAP readout at A630, incubated for 20 hours
Procedure: Example 3: IL-17A/A HEK-Blue Cell Assay
The HEK-Blue IL-17A reporter cell line (Fisher #NC1408637) was used for cell-based IL-17A/A inhibition assays. Cells were grown and prepared for assays according to the manufacturer's instructions. This cell line consists of HEK 293 cells that were designed to expressed IL-17RA, IL-17RC, and the ActI adapter molecule, the combination of which, when stimulated by IL-17A/A activates a NFκB promoter and drives expression of a recombinant Secreted Alkaline Phosphatase (SEAP) gene protein. Media from the cells is then added to a development reagent (Quanti-Blue Substrate, Fisher #NC9711613), and read at A630.
Compounds were titrated in DMSO, with a top final compound concentration of 10 μM, 1 uM, or 0.3 μM, and added to the cells immediately before adding IL-17A/A (Genscript #Z03228). The cells, compound, and IL-17A/A were then incubated for 20 hours before media was removed for SEAP analysis. The resulting inhibition curve was then analyzed using Graphpad Prism 7.0, and IC50 values were determined using a 4-parameter nonlinear fit. DMSO was added to a universal final concentration of 0.1% to optimize background.

IC50 | Compound
0.1 to 1 µM | CCn1nccc1C(=O)N[C@H](c1nc2c(F)c(CC3CCNC3=O)ccc2[nH]1)C(C1CC1)C1CC1 (mixture of isomers) [Compound 2, N-((1S)-2,2-dicyclopropyl-1-(7-fluoro-6-((2-oxopyrrolidin-3-yl)methyl)-1H-benzo[d]imidazol-2-yl)ethyl)-1-ethyl-1H-pyrazole-5-carboxamide]
> 1 µM | CCn1nccc1C(=O)NC(c1nc2nc(CC3CCNC3=O)ccc2[nH]1)C1CCC(F)(F)CC1 (mixture of isomers) [Compound 9]
0.1 to 1 µM | CCn1nccc1C(=O)N[C@H](c1nc2c(F)c(C[C@H]3CCNC3=O)ccc2[nH]1)C(C1CC1)C1CC1 (single isomer, unassigned) [Compound 1]
< 0.1 µM | CCn1nccc1C(=O)N[C@H](c1nc2cc(C[C@H]3C[C@@H](C(F)(F)F)NC3=O)ccc2[nH]1)C(C1CC1)C1CC1 (single isomer, unassigned) [Compound 3]
0.1 to 1 µM | CCn1nccc1C(=O)N[C@H](c1nc2cc(C[C@@H]3C[C@@H](C(F)(F)F)NC3=O)ccc2[nH]1)C(C1CC1)C1CC1 (single isomer, unassigned) [Compound 4]
> 1 µM | CCn1nccc1C(=O)N[C@H](c1nc2cc(C[C@@H]3C[C@H](C(F)(F)F)NC3=O)ccc2[nH]1)C(C1CC1)C1CC1 (single isomer, unassigned) [Compound 5]
0.1 to 1 µM | CCn1nccc1C(=O)N[C@H](c1nc2c(F)c(CC3CCC(C(F)(F)F)NC3=O)ccc2[nH]1)C(C1CC1)C1CC1 (single isomer, unassigned) [Compound 47]
> 1 µM | CCn1nccc1C(=O)N[C@H](c1nc2c(F)c(CC3CCC(C(F)(F)F)NC3=O)ccc2[nH]1)C(C1CC1)C1CC1 (single isomer, unassigned) [Compound 48]
> 1 µM | CCn1nccc1C(=O)N[C@H](c1nc2c(F)c(CC3CCC(C(F)(F)F)NC3=O)ccc2[nH]1)C(C1CC1)C1CC1 (single isomer, unassigned) [Compound 49]
< 0.1 µM | CCn1nccc1C(=O)N[C@H](c1nc2c(F)c(CC3CCC(C(F)(F)F)NC3=O)ccc2[nH]1)C(C1CC1)C1CC1 (single isomer, unassigned) [Compound 50]
0.1 to 1 µM | CCn1nccc1C(=O)N[C@H](c1nc2c(F)c(CC3CCC(C(F)(F)F)NC3=O)ccc2[nH]1)C(C1CC1)C1CC1 (single isomer, unassigned) [Compound 51]
< 0.1 µM | CCn1nccc1C(=O)N[C@H](c1nc2cc(C[C@H]3CCNC3=O)ccc2[nH]1)C1CCCCCC1 [Compound 6]
0.1 to 1 µM | CCn1nccc1C(=O)N[C@H](c1nc2cc(C[C@H]3CCNC3=O)ccc2[nH]1)C1CCC(F)(F)CC1 [Compound 7]
> 1 µM | CCn1nccc1C(=O)N[C@H](c1nc2cc(C[C@@H]3CCNC3=O)ccc2[nH]1)C1CCC(F)(F)CC1 [Compound 8]
> 1 µM | CCn1nccc1C(=O)N[C@H](c1nc2nc(C[C@H]3CCNC3=O)ccc2[nH]1)C1CCC(F)(F)CC1 [Compound 10]
0.1 to 1 µM | CCn1nccc1C(=O)N[C@H](c1nc2c(F)c(CC3CCNC3=O)ccc2[nH]1)C1CCC(F)(F)CC1 (some centres unmarked) [Compound 11]
> 1 µM | CCn1nccc1C(=O)N[C@H](c1nc2c(F)c(C[C@@H]3CCNC3=O)ccc2[nH]1)C1CCC(F)(F)CC1 [Compound 12]
0.1 to 1 µM | CCn1nccc1C(=O)N[C@H](c1nc2cc(C[C@H]3CCNC3=O)cc(F)c2[nH]1)C1CCC(F)(F)CC1 [Compound 13]
> 1 µM | CCn1nccc1C(=O)N[C@H](c1nc2cc(C[C@@H]3CCNC3=O)cc(F)c2[nH]1)C1CCC(F)(F)CC1 [Compound 14]
0.1 to 1 µM | CCn1nccc1C(=O)N[C@H](c1nc2cc(CC3CCNC3=O)ccc2[nH]1)C(C1CC1)C1CC1 (some centres unmarked) [Compound 15]
0.1 to 1 µM | CCn1nccc1C(=O)N[C@H](c1nc2cc(C[C@H]3CCNC3=O)ccc2[nH]1)C(C1CC1)C1CC1 [Compound 16]
0.1 to 1 µM | CCn1nccc1C(=O)N[C@H](c1nc2ccc(CC3CCCNC3=O)cc2[nH]1)C(C1CC1)C1CC1 (some centres unmarked) [Compound 17]

IC50 | Compound
> 1 µM | CCn1nccc1C(=O)N[C@H](c1nc2ccc(C[C@@H]3CCCNC3=O)cc2[nH]1)C(C1CC1)C1CC1 [Compound 18]
> 1 µM | CCn1nccc1C(=O)N[C@H](c1nc2ccc(CC3(C)CCNC3=O)cc2[nH]1)C(C1CC1)C1CC1 (some centres unmarked) [Compound 19]
0.1 to 1 µM | CCn1nccc1C(=O)N[C@H](c1nc2ccc(CC3(C)CCNC3=O)cc2[nH]1)C(C1CC1)C1CC1 (some centres unmarked) [Compound 20]
0.1 to 1 µM | CCn1nccc1C(=O)N[C@H](c1nc2cc(C(C)C3CCNC3=O)ccc2[nH]1)C(C1CC1)C1CC1 (some centres unmarked) [Compound 21]
> 1 µM | CCn1nccc1C(=O)N[C@H](c1nc2cc(C(C)C3CCNC3=O)ccc2[nH]1)C(C1CC1)C1CC1 (some centres unmarked) [Compound 22]
> 1 µM | CCn1nccc1C(=O)N[C@H](c1nc2cc(C(C)C3CCNC3=O)ccc2[nH]1)C(C1CC1)C1CC1 (some centres unmarked) [Compound 23]
> 1 µM | CCn1nccc1C(=O)N[C@H](c1nc2cc(C(C)C3CCNC3=O)ccc2[nH]1)C(C1CC1)C1CC1 (some centres unmarked) [Compound 24]
0.1 to 1 µM | CCc1nonc1C(=O)N[C@H](c1nc2ccc(C[C@H]3CCNC3=O)cc2[nH]1)C1CCC(F)(F)CC1 [Compound 25]
> 1 µM | CCn1nccc1C(=O)N[C@H](c1nc2cc(C)c(CC3CCNC3=O)cc2[nH]1)C(C1CC1)C1CC1 (some centres unmarked) [Compound 26]
> 1 µM | CCn1nccc1C(=O)N[C@H](c1nc2cc(C[C@@H]3CCNC3=O)ccc2[nH]1)C(C1CC1)C1CC1 [Compound 27]
> 1 µM | CCn1nccc1C(=O)N[C@@H](c1nc2nc(C[C@H]3CCNC3=O)ccc2[nH]1)C1CCC(F)(F)CC1 [Compound 28]
> 1 µM | CCn1nccc1C(=O)N[C@@H](c1nc2nc(CC3CCNC3=O)ccc2[nH]1)C1CCC(F)(F)CC1 (some centres unmarked) [Compound 29]
> 1 µM | CCn1nccc1C(=O)N[C@H](c1nc2nc(CC3CCNC3=O)ccc2[nH]1)C1CCC(F)(F)CC1 (some centres unmarked) [Compound 30]
> 1 µM | CCn1nccc1C(=O)N[C@H](c1nc2cc(C[C@@H]3CCNC3=O)cc(F)c2[nH]1)C(C1CC1)C1CC1 [Compound 31]
0.1 to 1 µM | CCn1nccc1C(=O)N[C@H](c1nc2cc(C[C@H]3CCNC3=O)cc(F)c2[nH]1)C(C1CC1)C1CC1 [Compound 32]
0.1 to 1 µM | CCn1nccc1C(=O)N[C@H](c1nc2cc(CC3CC(C(F)(F)F)NC3=O)cc(F)c2[nH]1)C(C1CC1)C1CC1 (some centres unmarked) [Compound 33]
< 0.1 µM | CCn1nccc1C(=O)N[C@H](c1nc2cc(C[C@H]3C[C@@H](C(F)(F)F)NC3=O)cc(F)c2[nH]1)C(C1CC1)C1CC1 [Compound 34]
0.1 to 1 µM | CCn1nccc1C(=O)N[C@H](c1nc2ccc(C[C@H]3CCCNC3=O)cc2[nH]1)C(C1CC1)C1CC1 [Compound 35]
> 1 µM | CCn1nccc1C(=O)N[C@H](c1nc2ccc(C[C@@H]3CCCNC3=O)c(F)c2[nH]1)C(C1CC1)C1CC1 [Compound 36]
0.1 to 1 µM | CCn1nccc1C(=O)N[C@H](c1nc2c(F)c(C[C@@H]3C[C@@H](C(F)(F)F)NC3=O)ccc2[nH]1)C(C1CC1)C1CC1 [Compound 37]
0.1 to 1 µM | CCn1nccc1C(=O)N[C@H](c1nc2c(F)c(C[C@H]3C[C@H](C(F)(F)F)NC3=O)ccc2[nH]1)C(C1CC1)C1CC1 [Compound 38]
> 1 µM | CCn1nccc1C(=O)N[C@H](c1nc2c(F)c(CC3CC(C(F)(F)F)NC3=O)ccc2[nH]1)C(C1CC1)C1CC1 (some centres unmarked) [Compound 39]
